According to patent US9814734B2, “Bufalin liposome, preparation method therefor and application thereof” (THE FOURTH MILITARY MEDICAL UNIVERSITY, priority 2012, dated 2017):
Marks after values point to notes of the source that are not given here.

What was measured:
[1] = test system: colon cancer SW1116 cells; assay: Growth inhibition on tumor cells (MTT); assay type: cell-based; settings: Homo sapiens
Procedure: (§1) The cells of human cervical carcinoma Hela, lung cancer A549, gastric cancer SGC7901, liver cancer HepG2, myeloid leukemia HL-60 and colon cancer SW1116 are cultured in DMEM or RPMI 1640 medium (containing 10% inactived fetal bovine serum, 100 U·ml^−1 penicillin and 100 mg·l^−1 streptomycin) in a humidified 5% CO2 atmosphere at […]. The cells in logarithmic phase are collected, inoculated into 96-well plate at a density of 3×10^3/well (each well of 100 μl), and cultured for 24 h under 37° C., 5% CO2 and saturated humidity condition. A negative control group (culture solution) and administration groups with different concentrations are set up for the test. 1-300 nmol/1 bufalin or bufalin liposome (prepared according to the method of Example 1) is added into each culture well, followed by culturing in an incubator under 37° C., 5% CO2 and saturated humidity for 48 h, adding 20 μl of MTT solution (5 g/l) into each well, culturing for 4 h, and centrifuging. The supernatant was aspirated, and 150 μl dimethyl sulfoxide (DMSO) is added to each well and slightly shaking to dissolve crystal. The OD values are measured at 570 nm by an automatic microplate reader, and the cell growth inhibition rates are calculated according to following formula: cell growth inhibition rate/%=100−(OD value of administration group-OD value of blank control group)/(OD value of control group-OD value of bland control group)×100. IC50 (drug concentration at 50% inhibition on cell proliferation) value is calculated using mathematical method. Data are expressed as X±SEM. Statistical significance (P<0.05) for each variable is estimated by Student's t-test or ANOVA analysis.

[2] = test system: gastric cancer SGC7901 cells; assay: Growth inhibition on tumor cells (MTT); assay type: cell-based; settings: Homo sapiens
Procedure: as §1

[3] = test system: human cervical carcinoma Hela cells; assay: Growth inhibition on tumor cells (MTT); assay type: cell-based; settings: 48 h
Procedure: as §1

[4] = test system: liver cancer HepG2 cells; assay: Growth inhibition on tumor cells (MTT); assay type: cell-based; settings: Homo sapiens
Procedure: as §1

[5] = test system: lung cancer A549 cells; assay: Growth inhibition on tumor cells (MTT); assay type: cell-based; settings: Homo sapiens
Procedure: as §1

[6] = test system: myeloid leukemia HL-60 cells; assay: Growth inhibition on tumor cells (MTT); assay type: cell-based; settings: Homo sapiens
Procedure: as §1

[7] = Evaluation of acute toxicities in mice (LD50, Bliss method); settings: mouse, in vivo, ip; male Balb/c mice, intraperitoneal, observed 7 days; dose as amount of bufalin; read-out: half-lethal dose (LD50)
Procedure: Male Balb/c mice (20-25 g) are purchased from the Laboratory Animal Center of Fourth Military Medical University. Bufalin is dissolved with anhydrous ethanol first, and then diluted with normal saline to 0.2 mg/ml (the final concentration of ethanol is below 1%). Bufalin liposome (prepared according to the method of Example 1) is directly dissolved in normal saline to obtain 0.2 mg/ml solution. 10 animals of each group are intraperitoneally injected with bufalin or bufalin liposome at dosages of 0.5, 1, 2, 4 and 6 mg/kg respectively (the dosage is the amount of bufalin in liposome, and the actual dosage of liposome is calculated from encapsulation efficiency). The mortality of mice, the toxic effect and any adverse reactions such as diarrhea, weight loss and behavior change are observed continuously for 7 days. The half-lethal dose (LD50) is calculated using graphical Bliss method.

[8] = test system: HepG2 tumour bearing mice; assay: In vivo therapeutic effect on liver cancer, HepG2 tumour bearing nude mice; parameters: species or system mouse; settings: i.p. daily, 1 mg/kg bufalin or 1 ml/kg Huachasu
Procedure: Human hepatocellular carcinoma cells, HepG2, are cultured in DMEM medium supplemented with 10% FBS, 100 U/ml penicillin G, and 100 μg/ml streptomycin in a humidified 5% CO2 atmosphere at 37° C. Male BALB/c nude mice (6-week-aged) are fed in pathogen-free conditions. The bufalin liposome is prepared according to the method of Example 1. Exponentially growing HepG2 cells are collected, and prepared into cell suspension with PBS. 0.2 ml of the cell suspension (2×10^7 cells) is injected subcutaneously into the right back of each mouse. When the tumor grows to 100 mm^3 (about one week), the mice are randomly divided into 4 groups (8 mice for each group), and intraperitoneally injected with 0.9% normal saline (control group), bufalin or bufalin liposome at the same dosage (Example 1, 1 mg/kg, the dosage is the amount of bufalin in liposome, and the actual dosage of liposome is calculated from encapsulation efficiency) and Huachasu injection (1 ml/kg, the dosage is obtained by converting clinically commonly used dosage into mouse administration dosage) respectively every day. […] The tumor volume is calculated according to the formula: V(mm^3)=(maximal diameter×minimal diameter^2)/2. After 14 days, the mice are sacrificed in anesthesia with overdose of pentobarbital sodium, followed by completely stripping the tumor body and weighing, and calculating the tumor inhibition rate by: tumor inhibition rate (%)=(average tumor weight of control group-average tumor weight of administration group)/average tumor weight of control group×100. Data are expressed as X±SEM, and statistically processed via t-test or variance analysis.

[9] = test system: mice bearing L1210 leukemia; assay: Therapeutic effect on mice bearing L1210 leukemia; assay type: in vivo, mouse; settings: ICR mice, i.p. daily, 1 mg/kg bufalin or 1 ml/kg Huachasu
Procedure: Mouse L1210 leukemia cells are subcultured intraperitoneally in ICR mouse. The bufalin liposome is prepared according to the method of Example 1. Male ICR mice (weight of 20±2 g, 5 mice in each cage) are fed in an animal room under alternative 12-hour illumination and 12-hour darkness at a constant temperature of 25° C. and allowed free access to standard laboratory diet. The mice are inoculated intraperitoneally with 1×10^5 L1210 leukemia cell suspension under sterile condition, and randomly divided into 4 groups (10 mice for each group). After 24 h, each group is intraperitoneally injected with 0.9% normal saline (control group), bufalin or bufalin liposome at the same dosage (obtained by Example 1, 1 mg/kg, the dosage is the amount of bufalin in liposome, and the actual dosage of liposome is calculated from encapsulation efficiency) and Huachasu injection (1 ml/kg, the dosage is obtained by converting clinically commonly used dosage into mouse administration dosage) respectively every day. The survival situations of mice within 35 days are observed and recorded, and the life extension rate is calculated. Life extension rate (%)=(average survival time of administration group/average survival time of control group-1)×100. Data are expressed as X±SEM. Statistical significance (P<0.05) for each variable was estimated by Student's t-test or ANOVA analysis.

[10] = test system: patient with liver cancer or pancreas cancer; assay: Clinical tolerance of Huachasu injection (literature, Meng Z. et al.); assay type: in vivo, human; settings: worked out from the Huachasu injection dose and its bufalin content
From the text: At present, a Huachasu injection, prepared by dissolving Venenum Bufonis in normal saline, has been used for the clinical treatment of cancer in China. It has been reported that the combination of gemcitabine-oxaliplatin with Huachasu can enhance the chemotherapeutic effect in the treatment of patients with advanced gallbladder cancer (Qin T J, et al. World J Gastroenterol. 2008, 14(33):5210-6). […] However, the Huachasu injection is a mixture solution of alkaloids in Venenum Bufonis, and the content of bufalin contained therein is very low due to the poor water solubility of bufalin.

With `C[C@]12CC[C@H](O)C[C@H]1CC[C@@H]1[C@@H]2CC[C@]2(C)[C@@H](c3ccc(=O)oc3)CC[C@]12O` [bufalin, 3β,14-dihydroxy-5β, 20(22)-bufadienolide] the inhibition at 0.001 µM ([1]; SW 1116, SW1116, 1 nmol/l, 48 h, read-out: Inhibition rate (%)) was 1.9 ± 0.3%, the inhibition at 0.003 µM ([1]; SW 1116, SW1116, 3 nmol/l, 48 h, read-out: Inhibition rate (%)) was 2.7 ± 0.1% and the inhibition at 0.01 µM ([1]; SW 1116, SW1116, 10 nmol/l, 48 h, read-out: Inhibition rate (%)) was 18 ± 3.9%. The inhibition at 0.03 µM ([1]; SW 1116, SW1116, 30 nmol/l, 48 h, read-out: Inhibition rate (%)) was 42.7 ± 6.3%, the inhibition at 0.1 µM ([1]; SW 1116, SW1116, 100 nmol/l, 48 h, read-out: Inhibition rate (%)) was 73.1 ± 8.8% and the inhibition at 0.3 µM ([1]; SW 1116, SW1116, 300 nmol/l, 48 h, read-out: Inhibition rate (%)) was 99.4 ± 11.6%. The IC50 ([1]; SW 1116, SW1116, 48 h) was 30.6 nM, the inhibition at 0.001 µM ([2]; SGC-7901, 1 nmol/l, 48 h, read-out: Inhibition rate (%)) was 3.1 ± 0.5% and the inhibition at 0.003 µM ([2]; SGC-7901, 3 nmol/l, 48 h, read-out: Inhibition rate (%)) was 3.9 ± 0.8%. It also gave an inhibition at 0.01 µM ([2]; SGC-7901, 10 nmol/l, 48 h, read-out: Inhibition rate (%)) of 23.7 ± 3.6%, an inhibition at 0.03 µM ([2]; SGC-7901, 30 nmol/l, 48 h, read-out: Inhibition rate (%)) of 45.9 ± 6.5% and an inhibition at 0.1 µM ([2]; SGC-7901, 100 nmol/l, 48 h, read-out: Inhibition rate (%)) of 85.6 ± 10.2%. It also gave an inhibition at 0.3 µM ([2]; SGC-7901, 300 nmol/l, 48 h, read-out: Inhibition rate (%)) of 97.9 ± 11.3%, an IC50 ([2]; SGC-7901, 48 h) of 23.5 nM and an inhibition at 0.001 µM ([3]; 1 nmol/l, read-out: Inhibition rate (%)) of 3.8 ± 2%. The inhibition at 0.003 µM ([3]; 3 nmol/l, read-out: Inhibition rate (%)) was 9.6 ± 8.2%, the inhibition at 0.01 µM ([3]; 10 nmol/l, read-out: Inhibition rate (%)) was 33.9 ± 4.5% and the inhibition at 0.03 µM ([3]; 30 nmol/l, read-out: Inhibition rate (%)) was 56.3 ± 8.2%. For the same compound, the inhibition at 0.1 µM ([3]; 100 nmol/l, read-out: Inhibition rate (%)) was 90.3 ± 10.7%, the inhibition at 0.3 µM ([3]; 300 nmol/l, read-out: Inhibition rate (%)) was 95.1 ± 6.9% and the IC50 [3] was 17.1 nM. For the same compound, the inhibition at 0.001 µM ([4]; HepG2, 1 nmol/l, 48 h, read-out: Inhibition rate (%)) was 5.3 ± 2.2%, the inhibition at 0.003 µM ([4]; HepG2, 3 nmol/l, 48 h, read-out: Inhibition rate (%)) was 6.1 ± 2.3% and the inhibition at 0.01 µM ([4]; HepG2, 10 nmol/l, 48 h, read-out: Inhibition rate (%)) was 30.2 ± 2.9%. For the same compound, the inhibition at 0.03 µM ([4]; HepG2, 30 nmol/l, 48 h, read-out: Inhibition rate (%)) was 49.8 ± 8.3%, the inhibition at 0.1 µM ([4]; HepG2, 100 nmol/l, 48 h, read-out: Inhibition rate (%)) was 69.8 ± 7.5% and the inhibition at 0.3 µM ([4]; HepG2, 300 nmol/l, 48 h, read-out: Inhibition rate (%)) was 87.7 ± 9.6%. It also gave an IC50 ([4]; HepG2, 48 h) of 33 nM, an inhibition at 0.001 µM ([5]; A549, 1 nmol/l, 48 h, read-out: Inhibition rate (%)) of 2 ± 0.2% and an inhibition at 0.003 µM ([5]; A549, 3 nmol/l, 48 h, read-out: Inhibition rate (%)) of 8.5 ± 1%. For the same compound, the inhibition at 0.01 µM ([5]; A549, 10 nmol/l, 48 h, read-out: Inhibition rate (%)) was 25.3 ± 3.8%, the inhibition at 0.03 µM ([5]; A549, 30 nmol/l, 48 h, read-out: Inhibition rate (%)) was 44.2 ± 7.1% and the inhibition at 0.1 µM ([5]; A549, 100 nmol/l, 48 h, read-out: Inhibition rate (%)) was 52.3 ± 8.3%. The inhibition at 0.3 µM ([5]; A549, 300 nmol/l, 48 h, read-out: Inhibition rate (%)) was 63.8 ± 7.9%, the IC50 ([5]; A549, 48 h) was 78.8 nM and the inhibition at 0.001 µM ([6]; HL60, 1 nmol/l, 48 h, read-out: Inhibition rate (%)) was 1.6 ± 0.1%. It also gave an inhibition at 0.003 µM ([6]; HL60, 3 nmol/l, 48 h, read-out: Inhibition rate (%)) of 4.4 ± 0.7%, an inhibition at 0.01 µM ([6]; HL60, 10 nmol/l, 48 h, read-out: Inhibition rate (%)) of 33.8 ± 6.1% and an inhibition at 0.03 µM ([6]; HL60, 30 nmol/l, 48 h, read-out: Inhibition rate (%)) of 52.4 ± 8%. It also gave an inhibition at 0.1 µM ([6]; HL60, 100 nmol/l, 48 h, read-out: Inhibition rate (%)) of 88.7 ± 9.8%, an inhibition at 0.3 µM ([6]; HL60, 300 nmol/l, 48 h, read-out: Inhibition rate (%)) of 98 ± 10.2% and an IC50 ([6]; HL60, 48 h) of 21.1 nM. For the same compound, the LD50 at 7 days [7] was 2 mg/kg, the tumor inhibition rate ([8]; after 14 days, versus control group) was 21.8% and the “Tumor volume (mm^3)” value ([8]; treatment day 0 (prior to administration)) was 410.5 ± 75.3 mm^3. The “Tumor volume (mm^3)” value ([8]; treatment day 2) was 1055.8 ± 203.0 mm^3, the “Tumor volume (mm^3)” value ([8]; treatment day 4) was 1621.0 ± 303.8 mm^3 and the “Tumor volume (mm^3)” value ([8]; treatment day 6) was 2215.9 ± 338.1* mm^3. For the same compound, the “Tumor volume (mm^3)” value ([8]; treatment day 8) was 2115.7 ± 349.7* mm^3, the “Tumor volume (mm^3)” value ([8]; treatment day 10) was 2565.4 ± 385.2* mm^3 and the “Tumor volume (mm^3)” value ([8]; treatment day 12) was 2691.9 ± 407.1* mm^3. The “Tumor volume (mm^3)” value ([8]; treatment day 14, 1 mg/kg) was 3205.6±711.5 mm^3, the “Tumor volume (mm^3)” value ([8]; treatment day 14, listed as Bufalin, 1 mg/kg) was 3205.6 ± 711.5* mm^3 and the “Average survival time” value ([9]; observed 35 days, 1 mg/kg) was 22.8 ± 3.1 days. For the same compound, the “Life extension rate (%)” value ([9]; versus control group) was 36.5% and the “amount of bufalin tolerated by an adult patient every day” value [10] was “up to 2.3 μg”.
